Assay [1] addresses T1, human recombinant PDE10A (Homo sapiens, UniProt Q9Y233).
T1 construct: made in house; host or cells: SF21 insect cells (baculovirus)
Put plainly: Inhibition of PDE10, human recombinant PDE10A ([3H]-cAMP SPA). The format is biochemical. The method, then:
The gene was than inserted into a baculovirus vector, ligated with the baculovirus DNA. The enzyme-protein was expressed in SF21-cells. The enzyme was isolated from these cells by harvesting the cells by a centrifugation at 200 g to collect the cells. The cells were resuspended in 50 mM Tris-HCl/5 mM MgCl2 buffer (pH=7.4) and lysed by a sonication of the cells. The cytosolic PDE10A was obtained by a centrifugation at 48000 g for 1 h in the supernatant and stored at −70° C. PDE10 activity was determined in a one step procedure in microtiterplates. […] Nonspecific activity was tested without the enzyme. The reaction was initiated by addition of the substrate solution and was carried out at 37° C. for 30 minutes. Enzymatic activity was stopped by addition of 25 μl YSi-SPA-beads (Amersham-Pharmacia). One hour later the mixture was measured in a liquid scintillation counter for microtiterplates (Microbeta Trilux). To pipette the incubation mixture a robot Biomek (Fa. Beckman) is used. […] For determination of IC50 values the Hill-plot, 2-parameter-model, was used.

The target in assay [2] is PDE10 from pig striatum (Sus scrofa, UniProt A0A287B941). The experiment in a line: Inhibition of PDE10 from pig striatum ([3H]-cAMP SPA). The format is biochemical. The method, then:
Phosphodiesterase isoenzyme 10 (PDE10) activity was determined in preparations of human recombinant PDE10A and PDE10 from pig striatum, respectively.
Striatum from male hybrid pigs (150 kg) were collected and frozen at −70° C.
At the day of preparation 0.5 g striatum was homogenised in 10 ml 50 mM Tris/Mg-buffer at 4° C. and centrifuged for one hour at 100000 g. The supernatant was removed and the pellet was resuspended in the same buffer, but containing 1% Triton and incubated for 45 min at 4° C. The membrane fraction was applied onto a 5 ml Hi Trap™ QHP column at the Akta-FPLC. After washing the column the bound PDE protein was eluted with an increasing sodium chloride gradient (O mM-500 mM sodium chloride) in 50 mM Tris/Mg-buffer at 4° C. in the presence of 1% Triton. […] The fractions with PDE10-activity were pooled and frozen in aliquots until use at −20° C.
PDE10 activity was determined in a one step procedure in microtiterplates. […] Nonspecific activity was tested without the enzyme. The reaction was initiated by addition of the substrate solution and was carried out at 37° C. for 30 minutes. Enzymatic activity was stopped by addition of 25 μl YSi-SPA-beads (Amersham-Pharmacia). One hour later the mixture was measured in a liquid scintillation counter for microtiterplates (Microbeta Trilux). To pipette the incubation mixture a robot Biomek (Fa. Beckman) is used. […] For determination of IC50 values the Hill-plot, 2-parameter-model, was used.
The phosphodiesterase isoenzyme 10 (PDE10) activity was determined in preparations of rat, pig and guinea pig striatum respectively. Striatum from male Wistar rats (180-200 g), male hybrid pigs (150 kg) and male guinea pigs (CRL (HA), 500 g) respectively were collected and frozen at −70° C.
At the day of preparation 0.5 g striatum was homogenized in 10 ml 50 mM Tris/Mg-buffer at 4° C. and centrifuged for one hour at 100000 g. The supernatant is called the cytosolic fraction and was removed and stored on ice. The pellet was resuspended in the same buffer, but containing 1% Triton and incubated for 45 min at 4° C. Both fractions were independently applied onto a 5 ml Hi Trap™ QHP column at the Akta-FPLC. After washing the columns the bound PDE protein was eluted with an increasing sodium chloride gradient (0 mM-500 mM sodium chloride) in 50 mM Tris/Mg-buffer at 4° C. for the cytosolic fraction and in the presence of 1% Triton for the membrane fraction. […] The fractions with PDE10-activity were pooled and frozen in aliquots until use at −20° C.
PDE10 activity was determined in a one step procedure in microtiterplates. […] Nonspecific activity was tested without the enzyme. The reaction was initiated by addition of the substrate solution and was carried out at 37° C. for 30 minutes. Enzymatic activity was stopped by addition of 25 μl YSi-SPA beads (Amersham-Pharmacia). One hour later the mixture was measured in a liquid scintillation counter for microtiterplates (Microbeta Trilux). To pipette the incubation mixture a robot Biomek (Fa. Beckman) is used. […] For determination of IC50 values the Hill-plot, 2-parameter-model, was used.

The mark [3] stands for this setting: Table 7, read-out: Human PDE10 (IC50 nM).
The mark [4] stands for this setting: Table 8, read-out: PDE10 pig IC50.
The mark [5] stands for this setting: Table 9, cells marked pPDE10, read-out: IC50 (nM) (pPDE10).

Like-named read-outs stand apart in the source and are kept apart here.

Usually IC50 stands for the concentration needed to halve the response being measured.

T1 sequence (Q9Y233 1-779 isoform Q9Y233-1): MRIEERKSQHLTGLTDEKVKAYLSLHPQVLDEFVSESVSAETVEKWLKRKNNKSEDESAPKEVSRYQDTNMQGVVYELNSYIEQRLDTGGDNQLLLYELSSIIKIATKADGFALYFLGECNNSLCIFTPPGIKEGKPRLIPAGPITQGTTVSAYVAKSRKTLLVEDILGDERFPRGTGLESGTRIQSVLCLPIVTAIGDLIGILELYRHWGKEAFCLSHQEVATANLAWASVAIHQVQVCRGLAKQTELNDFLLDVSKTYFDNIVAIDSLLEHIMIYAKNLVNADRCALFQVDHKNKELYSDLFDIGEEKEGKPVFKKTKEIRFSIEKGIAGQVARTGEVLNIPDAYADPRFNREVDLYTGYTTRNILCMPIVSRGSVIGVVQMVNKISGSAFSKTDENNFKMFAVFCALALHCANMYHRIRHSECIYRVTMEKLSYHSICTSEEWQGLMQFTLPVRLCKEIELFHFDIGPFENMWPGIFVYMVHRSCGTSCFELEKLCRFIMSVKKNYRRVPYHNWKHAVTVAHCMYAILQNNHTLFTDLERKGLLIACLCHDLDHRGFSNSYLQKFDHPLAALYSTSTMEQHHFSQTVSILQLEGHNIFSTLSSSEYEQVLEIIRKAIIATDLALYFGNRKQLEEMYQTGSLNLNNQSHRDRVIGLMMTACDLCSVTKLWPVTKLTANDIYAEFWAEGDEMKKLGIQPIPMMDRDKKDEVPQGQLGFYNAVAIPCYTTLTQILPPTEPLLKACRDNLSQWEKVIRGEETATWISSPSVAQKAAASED

For the compound `COc1ccc2nc(C)c3c(C)nc(-c4ccc(Cl)cc4F)n3c2n1` [Example 17, 9-(4-Chloro-2-fluorophenyl)-2-methoxy-6,7-dimethylimidazo[1,5-a]pyrido[3,2-e]pyrazine], in assay [1] (setting [3]), the IC50 was in the range of 10 to 100 nM. On the same count and under the same terms, for `COc1ccc2nc(C)c3c(C)nc(-c4cnc(F)c(C)c4)n3c2n1` [Example 33, 9-(6-Fluoro-5-methylpyridin-3-yl)-2-methoxy-6,7-dimethylimidazo[1,5-a]pyrido[3,2-e]pyrazine] the value was 10 to 100 nM; for `COc1ccc2nc(C)c3c(C(F)(F)F)nc(-c4cnccc4OC)n3c2n1` [Example 34, 2-Methoxy-9-(4-methoxypyridin-3-yl)-6-methyl-7-(trifluoromethyl)imidazo[1,5-a]pyrido[3,2-e]pyrazine], above 100 nM. For `COc1ccc2nc(C)c3c(C(F)(F)F)nc(-c4cc(C(N)=O)ccc4F)n3c2n1` [Example 36, 4-Fluoro-3-[2-methoxy-6-methyl-7-(trifluoromethyl)imidazo[1,5-a]pyrido[3,2-e]pyrazin-9-yl]benzamide], the IC50 in assay [1] (setting [3]) lay within 10 to 100 nM. Still for that read-out and setting: then `COc1ccc2nc(N)c3c(C(F)(F)F)nc(-c4ccccc4C)n3c2n1` [Example 38, 2-Methoxy-9-(2-methylphenyl)-7-(trifluoromethyl)imidazo[1,5-a]pyrido[3,2-e]pyrazin-6-amine], with 10 to 100 nM; and `COc1ccc2nc(NS(C)(=O)=O)c3c(C(F)(F)F)nc(-c4ccccc4C)n3c2n1` [Example 39, N-[2-Methoxy-9-(2-methylphenyl)-7-(trifluoromethyl)imidazo[1,5-a]pyrido[3,2-e]pyrazin-6-yl]methanesulfonamide], with below 10 nM; and `COc1ccc2nc(C#N)c3c(C)nc(-c4cc(Cl)ccc4Cl)n3c2n1` [Example 40, 9-(2,5-Dichlorophenyl)-2-methoxy-7-methylimidazo[1,5-a]pyrido[3,2-e]pyrazine-6-carbonitrile], with 10 to 100 nM. With `CCCc1nc(C)c2c(C)nc3ccc(=O)[nH]c3n12` [Example 46, 6,7-Dimethyl-9-propylimidazo[1,5-a]pyrido[3,2-e]pyrazin-2(1H)-one], the IC50 in assay [1] (Table 8, cell marked Human PDE10, read-out: IC50 (nM) (Human PDE10)) was above 100 nM.

Regarding `COc1ccc2nc(C)c3c(C)nc(-c4cccc(C(N)=O)c4)n3c2n1` [Example 93, 3-(2-Methoxy-6,7-dimethylimidazo[1,5-a]pyrido[3,2-e]pyrazin-9-yl)benzamide], in assay [2] (setting [4]), the IC50 was below 10 nM. In the case of `COc1cccc(C#Cc2nc(C)c3c(C)nc4ccc(OC)nc4n23)c1` [Example 94, 2-Methoxy-9-[(3-methoxyphenyl)ethynyl]-6,7-dimethylimidazo[1,5-a]pyrido[3,2-e]pyrazine], in assay [2] (setting [4]), the IC50 was above 100 nM. The same measure, in the same setting: for `COc1ccc2nc(C)c3c(C)nc(C#CC4CCCCC4)n3c2n1` [Example 95, 9-(Cyclohexylethynyl)-2-methoxy-6,7-dimethylimidazo[1,5-a]pyrido[3,2-e]pyrazine] the value was above 100 nM; for `COc1ccc2nc(C)c3c(C)nc(C#Cc4ccccc4Cl)n3c2n1` [Example 96, 9-[(2-Chlorophenyl)ethynyl]-2-methoxy-6,7-dimethylimidazo[1,5-a]pyrido[3,2-e]pyrazine], 10 to 100 nM. For `COc1ccc2nc(C)c3c(C)nc(C#CC4CC4)n3c2n1` [Example 97, 9-(Cyclopropylethynyl)-2-methoxy-6,7-dimethylmidazo[1,5-a]pyrido[3,2-e]pyrazine], the IC50 in assay [2] (setting [4]) was 10 to 100 nM. With `COc1ccc2nc(C)c3c(C)nc(C#Cc4ccccc4OC)n3c2n1` [Example 98, 2-Methoxy-9-[(2-methoxyphenyl)ethynyl]-6,7-dimethylimidazo[1,5-a]pyrido[3,2-e]pyrazine], the IC50 in assay [2] (setting [4]) is above 100 nM. With `COc1ccc2nc(C)c3c(C)nc(C#Cc4ccccc4C)n3c2n1` [Example 99, 2-Methoxy-6,7-dimethyl-9-[(2-methylphenyl)ethynyl]imidazo[1,5-a]pyrido[3,2-e]pyrazine], the IC50 in assay [2] (setting [4]) was above 100 nM. As for `CNC(=O)c1cccc(-c2nc(C)c3c(C)nc4ccc(OC)nc4n23)c1` [Example 100, 3-(2-Methoxy-6,7-dimethylimidazo[1,5-a]pyrido[3,2-e]pyrazin-9-yl)-N-methylbenzamide], the IC50 in assay [2] (setting [4]) was above 100 nM. As to `CCNC(=O)c1cccc(-c2nc(C)c3c(C)nc4ccc(OC)nc4n23)c1` [Example 101, N-Ethyl-3-(2-methoxy-6,7-dimethylimidazo[1,5-a]pyrido[3,2-e]pyrazin-9-yl)benzamide], the IC50 in assay [2] (setting [4]) lay within 10 to 100 nM. On to `CONC(=O)c1cccc(-c2nc(C)c3c(C)nc4ccc(OC)nc4n23)c1` [Example 102, N-Methoxy-3-(2-methoxy-6,7-dimethylimidazo[1,5-a]pyrido[3,2-e]pyrazin-9-yl)benzamide], for which the IC50 in assay [2] (setting [4]) was 10 to 100 nM. With `COc1ccc2nc(C)c3c(C)nc(-c4cccc(C(=O)NC(C)C)c4)n3c2n1` [Example 103, N-Isopropyl-3-(2-methoxy-6,7-dimethylimidazo[1,5-a]pyrido[3,2-e]pyrazin-9-yl)benzamide], the IC50 in assay [2] (setting [4]) was 10 to 100 nM. With `COc1ccc2nc(C)c3c(C)nc(-c4cccc(C(=O)N(C)C)c4)n3c2n1` [Example 104, 3-(2-Methoxy-6,7-dimethylimidazo[1,5-a]pyrido[3,2-e]pyrazin-9-yl)-N,N-dimethylbenzamide], the IC50 in assay [2] (setting [4]) is above 100 nM.

Take `COc1ccc2nc(C)c3c(C)nc(-c4cccc(C(=O)N5CCCCC5)c4)n3c2n1` [Example 105, 2-Methoxy-6,7-dimethyl-9-[3-(piperidin-1-ylcarbonyl)phenyl]imidazo[1,5-a]pyrido[3,2-e]pyrazine]: the IC50 in assay [2] (setting [4]) is above 100 nM. Still for that read-out and setting: then `COc1ccc2nc(C)c3c(C)nc(-c4cc(C(N)=O)ccc4F)n3c2n1` [Example 106, 4-Fluoro-3-(2-methoxy-6,7-dimethylimidazo[1,5-a]pyrido[3,2-e]pyrazin-9-yl)benzamide], with below 10 nM. Still for that read-out and setting: then `CNC(=O)c1ccc(F)c(-c2nc(C)c3c(C)nc4ccc(OC)nc4n23)c1` [Example 107, 4-Fluoro-3-(2-methoxy-6,7-dimethylimidazo[1,5-a]pyrido[3,2-e]pyrazin-9-yl)-N-methylbenzamide], with above 100 nM. Take `COc1ccc2nc(C#N)c3c(C)nc(-c4ccccc4Cl)n3c2n1` [Example 111, 9-(2-chlorophenyl)-2-methoxy-7-methylimidazo[1,5-a]pyrido[3,2-e]pyrazine-6-carbonitrile]: the IC50 in assay [2] (setting [5]) is below 10 nM. For the compound `COc1ccc2nc(C#N)c3c(C)nc(-c4ccc(Cl)cc4Cl)n3c2n1` [Example 112, 9-(2,4-dichlorophenyl)-2-methoxy-7-methylimidazo[1,5-a]pyrido[3,2-e]pyrazine-6-carbonitrile], the IC50 in assay [2] (setting [5]) was below 10 nM.

For `Cc1ccccc1-c1nc(C)c2c(C)nc3ccc(OCC4CC4)nc3n12` [Example 123, 2-(cyclopropylmethoxy)-6,7-dimethyl-9-(2-methylphenyl)imidazo[1,5-a]pyrido[3,2-e]pyrazine], in assay [1] (Table 9, read-out: hPDE10 IC50), the IC50 is below 10 nM. Take `COc1ccc2nc(C)c3c(C)nc(-c4cc(F)cc(C(N)=O)c4)n3c2n1` [Example 129, 3-fluoro-5-(2-methoxy-6,7-dimethylimidazo[1,5-a]pyrido[3,2-e]pyrazin-9-yl)benzamide]: the IC50 in assay [1] (Table 9, read-out: hPDE10 IC50) was below 10 nM.

For the origin of these results see patent US20090143361A1, “Pyrido[3,2-E]Pyrazines, Process For Preparing The Same, And Their Use As Inhibitors Of Phosphodiesterase 10” (ELBION GMBH, priority 2007, published 2009).
